Assay results reported in patent US8410106B2, “Hydrazine-substituted anthranilic acid derivatives” (Bayer Cropscience AG, priority 2010, dated 2013).
Where two headings read alike, the source gives them in different places.

How the values were obtained:
[1] = tested on: green peach aphid (Myzus persicae); assay: Myzus test (MYZUPE spray treatment); assay type: in vivo; details: foliar, 144 h, read-out: activity (aphids killed)
Experimental: After 6 days the activity is determined, in %.

[2] = tested on: larvae of the mustard beetle (Phaedon cochleariae); assay: Phaedon test (PHAECO spray treatment); details: in Brassica rapa, foliar, 168 h, read-out: activity (beetle larvae killed)
[3] = tested on: caterpillars of the army worm (Spodoptera frugiperda); assay: Spodoptera frugiperda test (SPODFR spray treatment); assay type: in vivo; details: foliar, 168 h, read-out: activity (caterpillars killed)
[4] = logP determination by HPLC on reversed-phase columns (C 18), EEC Directive 79/831 Annex V.A8; assay type: physicochemical
[5] = HPLC, reversed-phase C 18, table value without method mark, read-out: logP
[6] = application rate 100 g/ha, after 6 days, Chinese cabbage leaf discs, spray
[7] = application rate 100 g/ha, after 7 days, maize leaf discs, spray

SMILES | pest or weed control at 100 g/ha ([1]; in Brassica rapa) | pest or weed control at 100 g/ha [2] | pest or weed control at 100 g/ha ([3]; in Zea mays) | chromatographic logP [4, 5] | chromatographic logP [4] | pest or weed control at 100 g/ha [1, 6] | pest or weed control at 100 g/ha [3, 7] | chromatographic logP ([4]; HPLC, reversed-phase C 18, value in text of the Preparation Examples, read-out: logP)
COC(=O)NNC(=O)c1cc(Cl)cc(C)c1NC(=O)c1cc(Cn2nnc(C(F)(F)C(F)(F)C(F)(F)F)n2)nn1-c1ncccc1Cl [Example 54] | 90% | 100% | 100% | 3.41 |  |  |  | 
COC(=O)N(C)NC(=O)c1cc(Cl)cc(C)c1NC(=O)c1cc(Cn2cc(C(F)(F)F)nn2)nn1-c1ncccc1Cl [Example 33] | 100% | 100% | 100% |  | 2.61 |  |  | 
COC(=O)N(C)NC(=O)c1cc(C#N)cc(C)c1NC(=O)c1cc(Cn2ncc(C(F)(F)F)n2)nn1-c1ncccc1Cl [Example 29] | 100% | 100% | 100% |  | 2.62 |  |  | 
COC(=O)N(C)NC(=O)c1cc(Cl)cc(C)c1NC(=O)c1cc(Cn2nc(C(F)(F)C(F)(F)C(F)(F)F)cc2C)nn1-c1ncccc1Cl [Example 68] | 100% | 100% | 100% | 3.82 |  |  |  | 
COC(=O)N(C)NC(=O)c1cc(C#N)cc(C)c1NC(=O)c1cc(Cn2nnc(C(F)(F)F)n2)nn1-c1ncccc1Cl [Example 6] | 100% | 100% | 100% |  | 2.63 |  |  | 
COC(=O)N(C)NC(=O)c1cc(Cl)cc(Cl)c1NC(=O)c1cc(Cn2ncc(C(F)(F)F)n2)nn1-c1ncccc1Cl [Example 31] | 100% | 100% | 100% |  | 2.94 |  |  | 
COC(=O)N(C)NC(=O)c1cc(C#N)cc(C)c1NC(=O)c1cc(Cn2nc(C(F)F)cc2C(F)F)nn1-c1ncccc1Cl [Example 63] | 100% | 100% | 100% |  | 2.59 |  |  | 
COC(=O)N(C)N(C)C(=O)c1cc(C#N)cc(C)c1NC(=O)c1cc(Cn2nnc(C(F)(F)C(F)(F)C(F)(F)F)n2)nn1-c1ncccc1Cl [Example 82] | 100% | 100% | 100% | 3.67 |  |  |  | 
COC(=O)N(C)NC(=O)c1cc(C#N)cc(C)c1NC(=O)c1cc(Cn2cc(C(F)(F)F)nn2)nn1-c1ncccc1Cl [Example 47] | 90% | 100% | 100% |  | 2.3 |  |  | 
COC(=O)N(C)NC(=O)c1cc(Cl)cc(C)c1NC(=O)c1cc(Cn2nnc(C(F)(F)F)n2)nn1-c1ncccc1Cl [Example 5] | 100% | 100% | 100% |  | 2.96 |  |  | 
COC(=O)N(C)NC(=O)c1cc(I)cc(C)c1NC(=O)c1cc(Cn2ncc(C(F)(F)F)n2)nn1-c1ncccc1Cl [Example 32] | 90% | 100% | 100% |  | 2.81 |  |  | 
COC(=O)N(C)NC(=O)c1cc(C#N)cc(C)c1NC(=O)c1cc(Cn2nnc(C(F)(C(F)(F)F)C(F)(F)F)n2)nn1-c1ncccc1Cl [Example 16] |  | 100% |  | 3.26 |  | 100% | 100% | 
COC(=O)NNC(=O)c1cc(C#N)cc(C)c1NC(=O)c1cc(Cn2nnc(C(F)(F)F)n2)nn1-c1ncccc1Cl [Example 4] | 100% | 100% | 100% |  | 2.41 |  |  | 
COC(=O)N(C)NC(=O)c1cc(Cl)cc(C)c1NC(=O)c1cc(Cn2cnc(C(F)(F)F)c2C(F)(F)F)nn1-c1ncccc1Cl [Example 48] |  | 100% |  | 3.08 |  | 100% | 100% | 
COC(=O)N(C)NC(=O)c1cc(Cl)cc(Cl)c1NC(=O)c1cc(Cn2nc(C(F)(F)F)cc2C)nn1-c1ncccc1Cl [Example 66] | 100% | 100% | 100% |  | 3.1 |  |  | 
COC(=O)N(C)NC(=O)c1cc(I)cc(C)c1NC(=O)c1cc(Cn2nnc(C(F)(F)C(F)(F)C(F)(F)F)n2)nn1-c1ncccc1Cl [Example 81] | 80% | 100% | 100% | 3.85 |  |  |  | 
COC(=O)N(C)NC(=O)c1cc(C(F)(F)F)cc(C)c1NC(=O)c1cc(Cn2nnc(C(F)(F)C(F)(F)F)n2)nn1-c1ncccc1Cl [Example 61] |  | 100% |  | 3.55 |  | 90% | 100% | 

SMILES | pest or weed control at 100 g/ha ([1]; in Brassica rapa) | pest or weed control at 100 g/ha [2] | pest or weed control at 100 g/ha ([3]; in Zea mays) | chromatographic logP [4, 5] | chromatographic logP [4] | pest or weed control at 100 g/ha [1, 6] | pest or weed control at 100 g/ha [3, 7] | chromatographic logP ([4]; HPLC, reversed-phase C 18, value in text of the Preparation Examples, read-out: logP)
COC(=O)N(C)NC(=O)c1cc(Cl)cc(C)c1NC(=O)c1cc(Cn2nnc(C(F)(F)C(F)(F)F)n2)nn1-c1ncccc1Cl [Example 52] | 100% | 100% | 100% |  | 3.32 |  |  | 
COC(=O)N(C)NC(=O)c1cc(Cl)cc(C)c1NC(=O)c1cc(Cn2nnnc2C(F)F)nn1-c1ncccc1Cl [Example 46] | 100% | 100% | 100% |  | 2.25 |  |  | 
COC(=O)N(C)NC(=O)c1cc(I)cc(C)c1NC(=O)c1cc(Cn2cc(C(F)(F)F)nn2)nn1-c1ncccc1Cl [Example 35] | 100% | 100% | 100% |  | 3.14 |  |  | 
COC(=O)N(C)NC(=O)c1cc(Cl)cc(Cl)c1NC(=O)c1cc(Cn2cc(C(F)(F)F)nn2)nn1-c1ncccc1Cl [Example 34] | 100% | 100% | 100% |  | 2.61 |  |  | 
COC(=O)N(C)NC(=O)c1cc(I)cc(C)c1NC(=O)c1cc(Cn2cnc(C(F)(F)F)n2)nn1-c1ncccc1Cl [Example 69] | 100% | 100% | 100% |  | 2.71 |  |  | 
COC(=O)N(C)NC(=O)c1cc(C#N)cc(C)c1NC(=O)c1cc(Cn2nnc(C(F)F)n2)nn1-c1ncccc1Cl [Example 45] | 100% | 100% | 100% |  | 2.15 |  |  | 
COC(=O)N(C)N(C)C(=O)c1cc(C#N)cc(C)c1NC(=O)c1cc(Cn2nnc(C(F)(C(F)(F)F)C(F)(F)F)n2)nn1-c1ncccc1Cl [Example 79] |  | 100% |  | 3.66 |  | 100% | 100% | 
COC(=O)N(C)NC(=O)c1cc(Cl)cc(C)c1NC(=O)c1cc(Cn2cc(-c3ccc(Cl)cc3)nn2)nn1-c1ncccc1Cl [Example 23] | 100% | 100% | 100% |  | 3.14 |  |  | 
COC(=O)N(C)NC(=O)c1cc(Cl)cc(C)c1NC(=O)c1cc(Cn2nnc(C(F)(F)C(F)(F)C(F)(F)F)n2)nn1-c1ncccc1Cl [Example 1, methyl N′-(5-chloro-2-{[2-(3-chloropyridin-2-yl)-5-(5-heptalluoropropyltetrazol-2-ylmethyl)-2H-pyrazole-3-carbonyl]amino}-3-methylbenzoyl)-N-methylhydrazinecarboxylate] | 100% | 100% | 100% |  |  |  |  | 3.66
COC(=O)N(C)NC(=O)c1cc(Cl)cc(C)c1NC(=O)c1cc(Cn2nc(C(F)F)cc2C(F)F)nn1-c1ncccc1Cl [Example 50] | 100% | 100% | 100% |  | 2.91 |  |  | 
COC(=O)N(C)NC(=O)c1cc(Br)cc(C)c1NC(=O)c1cc(Cn2nnc(C(F)(F)C(F)(F)F)n2)nn1-c1ncccc1Cl [Example 53] | 100% | 100% | 100% |  | 3.4 |  |  | 
COC(=O)N(C)NC(=O)c1cc(I)cc(C)c1NC(=O)c1cc(Cn2nnnc2C(F)(F)F)nn1-c1ncccc1Cl [Example 72] | 100% | 100% | 100% |  | 2.78 |  |  | 
COC(=O)N(C)NC(=O)c1cc(F)cc(C)c1NC(=O)c1cc(Cn2nnc(C(F)F)n2)nn1-c1ncccc1Cl [Example 75] | 100% | 100% | 100% |  | 2.19 |  |  | 
COC(=O)N(C)N(C)C(=O)c1cc(Cl)cc(C)c1NC(=O)c1cc(Cn2cc(-c3ccc(Cl)cc3)nn2)nn1-c1ncccc1Cl [Example 41] |  | 100% |  | 3.49 |  | 100% | 100% | 
COC(=O)NNC(=O)c1cc(Cl)cc(C)c1NC(=O)c1cc(Cn2nnc(C(F)(F)F)n2)nn1-c1ncccc1Cl [Example 3] | 100% | 100% | 100% |  | 2.73 |  |  | 
COC(=O)N(C)NC(=O)c1cc(Cl)cc(Cl)c1NC(=O)c1cc(Cn2nnnc2C(F)F)nn1-c1ncccc1Cl [Example 28] | 100% | 100% | 100% |  | 2.27 |  |  | 
